Results on 7 compounds are retold here after patent US6479231B1, “Fluorescence-based assay for the interaction of small molecules with the human renal organic anion transporter 1 (hOAT1)” (Gilead Sciences, Inc., priority 1999, dated 2002).

The term Km denotes the substrate concentration at which the rate is half of its maximum.

SMILES strings stand for the structures. Read-outs that look alike come from different tables or passages of the source.

In assay [1] the target is T1, hOAT1 (Homo sapiens, UniProt Q4U2R8).
T1 sequence (Q4U2R8 1-550 isoform Q4U2R8-2): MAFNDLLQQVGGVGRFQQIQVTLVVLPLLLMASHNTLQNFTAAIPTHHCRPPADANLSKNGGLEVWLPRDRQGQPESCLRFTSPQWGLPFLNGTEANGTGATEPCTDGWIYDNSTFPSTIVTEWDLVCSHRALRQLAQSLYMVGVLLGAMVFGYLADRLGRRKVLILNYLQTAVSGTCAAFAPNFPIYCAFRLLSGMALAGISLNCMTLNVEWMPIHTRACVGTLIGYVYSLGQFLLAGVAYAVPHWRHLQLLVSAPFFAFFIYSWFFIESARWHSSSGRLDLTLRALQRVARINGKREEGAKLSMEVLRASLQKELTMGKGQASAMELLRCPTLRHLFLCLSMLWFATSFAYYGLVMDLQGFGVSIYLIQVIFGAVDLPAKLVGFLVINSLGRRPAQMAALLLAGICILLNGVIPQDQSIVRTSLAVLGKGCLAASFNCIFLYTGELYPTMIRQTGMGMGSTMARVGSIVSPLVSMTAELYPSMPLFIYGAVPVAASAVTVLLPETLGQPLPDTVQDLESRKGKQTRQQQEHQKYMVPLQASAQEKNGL
Description: Fluorescent transport assay: accumulation of fluorescent organic anions in CHO^hOAT vs CHO^pIRES cells. The conditions noted are these: 10 μM fluorescent anion, 10 min, room temperature.

The target in assay [2] is T1, hOAT1. The conditions noted are these: for Vmax of hOAT1-specific transport / Km: room temperature; for Km: read-out: Km of hOAT1-specific transport.
Description: First, a time-course of hOAT1-specific uptake of 6-CFL at various concentrations ranging from 0.31 to 20 μM was determined.
Kinetics of 6-CFL transport mediated by hOAT1. (a) Time course of hOAT1-specific uptake of 6-CFL. CHO^pIRES and CHO^hOAT cells in 96-well plates were incubated at room temperature with 6-CFL at concentrations ranging from 0.31 to 20 μM. At specific time points, the uptake was terminated by washing the cells with ice-cold PBS. After cell lysis, the intracellular fluorescence was determined and the net hOAT1-specific uptake was calculated after the subtraction of non-specific background uptake into CHO^pIRES cells determined under the identical conditions. […] (b) Saturation curve of the hOAT1-specific uptake of 6-CFL at 4-min time points. Km and Vmax values were estimated from the double-reciprocal plot (inset).
Assay [3] addresses T1, hOAT1. Kind of assay: Transport kinetics with the radioactive substrates in CHO^hOAT cells. In kind it is cell-based. Also on record: expressed in transfected cells; vector pIRESneo. The conditions noted are these: radiolabeled substrates, 3 min at 37° C, mean ± standard error, three to five experiments. The procedure: The assays were carried out in 12-well plates with nearly confluent cells seeded 48 hours prior to each experiment. Immediately before the experiment, the cells were washed with PBS pre-warmed to 37° C. Pre-warmed Waymouth buffer ([…]) containing radiolabeled substrate at various concentrations was added to the cells and incubated for 3 min at 37° C. At the end of incubation, the cells were washed 3-times with ice-cold PBS (2 ml/well) and lysed directly on the plate in the presence of 0.4% Triton X-100 (0.5 ml/well) for at least 20 min. Subsequently, the wells were washed with an additional 0.5 ml of the detergent, the lysate and wash were combined, and radioactivity in each sample was determined after adding 6 ml of scintillation fluid (Beckman Instruments, Fullerton, Calif.). Km values were estimated by the linear regression from double reciprocal plots using Enzyme Kinetics software (ChemSW, Fairfield, Calif.).

Assay [4] deals with T1, hOAT1. Description: Fluorescence-based inhibition assay: inhibition of 6-CFL uptake into CHO^hOAT cells. In kind it is cell-based. Also on record: expressed in transfected cells; vector pIRESneo.
The mark [5] stands for this setting: 4-min endpoints, double reciprocal plot.

For `O=C(O)c1ccc2c(c1)C(=O)OC21c2ccc(O)cc2Oc2cc(O)ccc21` [5-CFL, 5-carboxyfluorescein], at hOAT1 [1] (CHO^hOAT and CHO^pIRES cells), the “hOAT1-mediated transport / accumulation (in words)” value is “accumulated at very low levels both in CHO^hOAT and CHO^pIRES cells”.

For the compound `O=C(O)c1ccc2c(c1)C1(OC2=O)c2ccc(O)cc2Oc2cc(O)ccc21` [6-CFL, 6-carboxyfluorescein], the “accumulation in CHO^hOAT cells relative to control CHO^pIRES cells” value on hOAT1 [1] is “approximately 15 fold”. Besides, at hOAT1 [2], the “transport efficiency (Vmax/Km ratio)” value is recorded as “comparable to that of PAH”. On hOAT1 [2] (2-min endpoints), the “Vmax of hOAT1-specific transport” value turned out to be 19.7 pmol/10^6 cells·min and the Km amounted to 3.95 µM. Moreover, on hOAT1 [2] (setting [5]), the “Vmax of hOAT1-specific transport” value turned out to be 17.8 pmol/10^6 cells·min and the Km came out at 3.93 µM.

On to `Nc1ncnc2c1ncn2CCOCP(=O)(O)O` [Adefovir, 9-(2-phosphonylmethoxyethyl)adenine], for which, at hOAT1 [3], the Km stood at 23.8 ± 4.2 µM. Also, the “inhibition of 6-CFL transport (in words)” value on hOAT1 [4] is “inhibited the transport of 6-CFL”.

`CC1=C(C(=O)O)N2C(=O)[C@@H](NC(=O)[C@H](N)C3=CCC=CC3)[C@H]2SC1` [Cephradine]: the “inhibition of 6-CFL transport (in words)” value against hOAT1 [4] is listed as “inhibited the transport of 6-CFL”.

As for `Nc1ccn(C[C@@H](CO)OCP(=O)(O)O)c(=O)n1` [Cidofovir, (S)-1-(3-hydroxy-2-phosphonylmethoxypropyl)cytosine], the “inhibition of 6-CFL transport (in words)” value at hOAT1 [4] was “inhibited the transport of 6-CFL”.

For `Nc1ccn(C[C@H]2COP(=O)(O)CO2)c(=O)n1` [Cyclic prodrug of cidofovir, [((S)-1-2-hydroxy-2-oxo-1,4,2-dioxaphosphorinan-5-yl)methyl]cytosine], the Km on hOAT1 [3] was 309 ± 106 µM. Also, the “inhibition of 6-CFL transport (in words)” value against hOAT1 [4] was “inhibited the transport of 6-CFL”.

Regarding `CC(C(=O)O)c1cccc(C(=O)c2ccccc2)c1` (centres unmarked) [Ketoprofen], on hOAT1 [4], the “inhibition of 6-CFL transport (in words)” value is recorded as “inhibited the transport of 6-CFL”.
